Experimental data reported in paper PMC12598851, “Exploiting Avidity Effects for the Discovery of Low Affinity Protein-Binding Fragments” (Journal of Medicinal Chemistry, 2025).
pKd: −log10 of the molar value. Several values for one entry are separate records, joined by “and”; a condition that tells them apart may be missing. Identical values can stand only once. Entries after “also recorded” stand apart in the source; their conditions may differ. Like-named read-outs stand apart in the source and are kept apart here.

Tests used:
Rpn13 PRU = target: T1, Rpn13 PRU (Homo sapiens, UniProt Q16186); assay: SPR, soluble compound binding to biotinylated Rpn13 PRU captured on SA chip
T1 construct: FLAG (N); His10 (C); made in house; host or cells: E. coli BL21 (DE3) codon plus RP
Method: 4000–5000 Ru of Biotinylated Rpn13-PRU (50 μg/mL in running buffer (20 mM phosphate buffer with 2.7 mM KCl, 137 mM NaCl, 0.05% Surfactant P20, 1 mM DTT and 1 mM EDTA)) was captured on a SA sensor chip (Cytiva). Testing compounds were evaluated using the multiple-cycle kinetic/affinity method in running buffer with indicated association and dissociation time, and a flow rate of 40 μL/min. Data was analyzed with the BIAcore Insight Evaluation Software and the binding affinities were obtained by fitting the sensor grams to the 1:1 binding kinetics, steady-state affinity models or steady-state affinity model with constant R max.

[1] = target: T2, GST-Rpn13 PRU fusion protein (UniProt P08515+Q16186); assay: Bead-displayed fragment screen against GST-Rpn13 PRU fusion protein; format: binding, human; conditions: GST-Rpn13 PRU 500 nM, A647 anti-FLAG antibody staining
T2 construct: the human Rpn13 PRU (pleckstrin-like receptor for ubiquitin) domain is linked to the C-terminus of GST; His6 (C); made in house; host or cells: E. coli BL21 (DE3) codon plus RP
Method: The beads (one compound per well) were then incubated with GST-Rpn13 PRU fusion protein (500 nM) and, after washing, the amount of protein retained on the beads was measured after staining with Alexafluor-647 (A647)-labeled anti-FLAG antibody using a plate reader (Figure a). […] Next a competition experiment was performed in which the GST-Rpn13 PRU fusion protein was preincubated with excess glutathione (1 mM) to determine if the fragments, to some extent, engage the peptide-binding site of GST. […] We speculate that A8 and A88 probably bind to both GST and Rpn13, explaining the high signal in the original screen (Figure b). Finally, all five hit-displaying beads were incubated with only Alexa Fluor 647–labeled anti-FLAG antibody to confirm that the hits are not antibody binders (Figure S11).
General notes: • At each step, contents were mixed by pipetting up and down 3–5 times. • All steps following the addition of Alexa Fluor 647 anti-FLAG Tag Antibody were conducted in the dark. • Alexa Fluor 647 anti-FLAG Tag Antibody was purchased from commercial sources; (BioLengend cat #637316). […]
Each sample was transferred to a black 384-well plate in triplicate (3 × 20 μL per well). […] Fluorescence intensity was measured using a TECAN plate reader. Background fluorescence (from blank wells) was subtracted before further data analysis.

[2] = target: T3, Rpn2-binding surface of Rpn13 (GST-Rpn13 PRU) (Homo sapiens, UniProt Q16186); assay: Competition assay with Rpn2 peptide for GST-Rpn13 PRU fusion protein; conditions: protein preincubated with Rpn2 peptide 100 μM
T3 construct: the human Rpn13 PRU (pleckstrin-like receptor for ubiquitin) domain is linked to the C-terminus of GST; His6 (C); made in house; host or cells: E. coli BL21 (DE3) codon plus RP
Method: As mentioned above, the Rpn13 PRU domain binds to the proteasome via association with a C-terminal peptide tail from Rpn2. […] The amount of protein retained on the resin was then evaluated using the same protocol described above.
This assay was conducted following the exact same procedure described above using two samples: GST-Rpn13 PRU (100 nM) alone, and GST-Rpn13 PRU (100 nM) that had been pretreated with Rpn2 peptide (100 μM) for 1 h at 4 °C. Each sample was added to separate wells of a microtiter plate.

SA-647 = target: T4, SA-647 (Streptomyces avidinii, UniProt P22629); assay: Dose-dependent binding of SA-647 to bead-displayed ligands by FACS (MFI); conditions: SA-647 0.1 to 1000 nM
T4 construct: purchased ThermoFisher S3235
Method: We next asked if the bead binding assay could distinguish complexes with different affinities for SA. 10 μm TentaGel beads displaying compound 2, compound 3, the oxazole analogue of compound 2 (Figure S4), or the SA-binding macrocycle 1 shown in Figure a were exposed to different concentrations of SA-647 ranging from 0.1 to 1000 nM. After washing, the intensity of fluorescence retained on the beads was measured using a flow cytometer, and the results were plotted as the mean fluorescence intensity (MFI) on the beads vs the protein concentration. […] Macrocycle 1, which binds SA with a K D of about 600 nM in solution (more than 1000 times more tightly than compound 2), binds SA-647 on resin at far lower concentrations than does compound 2.

SA [3] = assay: Affinity of macrocycle 1 for SA in solution; format: binding; conditions: KD in solution against KD of compound 2
SA [4] = conditions: in solution; cited from earlier work
Streptavidin (SA) = target: T5, Streptavidin (SA) (Streptomyces avidinii, UniProt P22629); assay: SPR, soluble compound binding to immobilized streptavidin
T5 construct: purchased
Method: The SPR binding affinity testing was conducted using the BIAcore 1K system (Cytiva) with BIAcore Insight Control Software. Streptavidin (50 μg/mL in 10 mM pH 5.0 NaOAc) was immobilized on a CM5 sensor chip (Cytiva) via amide coupling, using HBS-EP+ (10 mM HEPES, 150 mM NaCl, 3 mM EDTA, and 0.05% v/v Surfactant P20) as the immobilization buffer. Approximately 1000 RU of immobilization was achieved. Testing compounds were evaluated using the multiple-cycle kinetic/affinity method in PBS-P+ running buffer (20 mM phosphate buffer, 2.7 mM KCl, 137 mM NaCl, and 0.05% Surfactant P20), with a 200 s association time, 200 s dissociation time, and a flow rate of 45 μL/min. Binding affinities for the testing compounds were determined by fitting the sensor grams to both the 1:1 binding kinetics and steady-state affinity models provided in the BIAcore Insight Evaluation Software.

[5] = target: T6, tetrameric streptavidin (SA-647) (Streptomyces avidinii, UniProt P22629); assay: Bead pull-down: SA-647 retained by compound-displaying TentaGel beads, plate reader; format: binding; conditions: SA-647 500 nM
T6 construct: purchased ThermoFisher S3235
From the text: Compounds 2 and 3 were then constructed on 10 μm TentaGel beads via straightforward solid-phase synthesis, along with acetylated beads, which as a “blank” (Figure c). TentaGel beads consist of an amino-polystyrene core onto which is grafted a thick layer of amine-terminated PEG chains. An additional mini-PEG spacer was incorporated prior to coupling the compounds to further improve spatial accessibility and aqueous display of the compounds (see Experimental Section for detailed synthesis). The beads were incubated with AlexaFluor 647-conjugated SA (SA-647) in phosphate-buffered saline supplemented with 0.05% Tween 20 (PBST) for 1 h at room temperature in the dark. Following incubation, the beads were washed thoroughly (see Experimental Section for a detailed protocol), then resuspended in PBST. The amount of fluorescent SA retained by the resin was analyzed using a Tecan multiwell plate reader equipped with appropriate excitation and emission filters (excitation at 650 nm, emission at 665 nm).
(§1) General notes: • At each step, contents were mixed by pipetting up and down 3–5 times. • All steps following the addition of SA-647 were conducted in the dark. • SA-647 and mSA-647 were purchased from commercial sources; (SA-647: ThermoFisher cat#S3235, mSA-647: Millipore SAE178).
A 96-well Multiscreen hydrophilic assay plate (MilliporeSigma, MSBVN12) was activated by treating each well with 150 μL of 70% (v/v) ethanol in water. The solvent was removed under vacuum, and the wells were washed with PBST (3 × 150 μL). Fresh PBST (150 μL) was then added to each well.
The plate was drained and washed again with PBST (3 × 150 μL), followed by the addition of 150 μL PBST per well. Plates were shaken overnight at ambient temperature on an orbital plate shaker.
The next day, wells were drained and incubated with 150 μL of a 1:1 (v/v) solution of PBST:PBS blocking buffer (Thermo Scientific, 37538) for 1 h at room temperature. After removal of the blocking buffer, 100 μL PBST was added to each well and mixed thoroughly. A 20 μL aliquot from each well was transferred to a black 384-well flat-bottom plate (Corning, 3820) for background (blank) measurements.
The remaining PBST was removed, and the beads were incubated with SA-647 (500 nM in 1:1 PBST/blocking buffer, 150 μL per well) for 1 h at room temperature. After incubation, wells were washed with PBST while shaking (3 × 20 min). A final 150 μL PBST wash was performed and drained. Fresh PBST (80 μL) was added to each well, and the contents were transferred to labeled PCR tubes. Samples were briefly vortexed and mixed by pipetting.
Each sample was transferred to a black 384-well plate in triplicate (3 × 20 μL per well). The plate was sealed with a foil sticker and centrifuged at 250g for 1 min. Fluorescence intensity was measured using a TECAN plate reader. Background fluorescence (from blank wells) was subtracted prior to further data analysis.

[6] = tested on: monomeric streptavidin (mSA-647); assay: Bead pull-down with monomeric streptavidin; format: binding; conditions: mSA-647 500 nM, 1 h, PBST, room temperature
Method: To investigate this, compound 2-displaying, compound 3-displaying, or blank (acetylated) beads were incubated with tetrameric SA-647 or iFluor647-conjugated monomeric streptavidin (mSA-647). Biotin-displaying beads (Figure S3) were also included in this experiment as a high-affinity comparator. […] No binding of either protein to compound 3-displaying beads was observed.
3 Stable binding of tetrameric SA to beads displaying compound 2 is highly dependent on avidity. […] Each compound was represented by 1 million 10 μm TentaGel beads, with 250,000 beads used per technical replicate. (b) Effect of ligand functionalization density on compound binding. Beads were functionalized with compound 2, compound 3, or biotin at varying surface densities (100% to 5%) and incubated with SA-647 (500 nM) for 1 h in PBST at room temperature as previously, before recording the fluorescence intensity.
as §1

[7] = target: T6, tetrameric streptavidin (SA-647); assay: Bead pull-down: SA-647 retained by compound-displaying TentaGel beads, plate reader; format: binding; conditions: SA-647 (100 nM), plate reader
[8] = soluble mini-PEG attached compound, immobilized SA, read-out: KD (SPR)

T6 sequence (P22629 37-163 limits assumed): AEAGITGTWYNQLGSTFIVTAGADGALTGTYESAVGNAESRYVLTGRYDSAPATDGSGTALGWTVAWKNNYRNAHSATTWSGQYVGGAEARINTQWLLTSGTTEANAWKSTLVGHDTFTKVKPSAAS
T5 sequence (P22629 25-183, species assumed): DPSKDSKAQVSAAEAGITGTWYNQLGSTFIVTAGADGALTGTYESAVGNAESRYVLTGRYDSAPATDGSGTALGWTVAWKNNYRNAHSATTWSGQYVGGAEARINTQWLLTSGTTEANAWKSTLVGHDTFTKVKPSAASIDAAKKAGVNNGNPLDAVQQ
T1 sequence (Q16186 18-131 limits assumed): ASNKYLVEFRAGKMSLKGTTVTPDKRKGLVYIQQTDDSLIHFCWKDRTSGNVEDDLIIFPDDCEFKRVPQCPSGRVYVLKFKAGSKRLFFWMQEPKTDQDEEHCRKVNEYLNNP
T2 sequence (P08515+Q16186 fused): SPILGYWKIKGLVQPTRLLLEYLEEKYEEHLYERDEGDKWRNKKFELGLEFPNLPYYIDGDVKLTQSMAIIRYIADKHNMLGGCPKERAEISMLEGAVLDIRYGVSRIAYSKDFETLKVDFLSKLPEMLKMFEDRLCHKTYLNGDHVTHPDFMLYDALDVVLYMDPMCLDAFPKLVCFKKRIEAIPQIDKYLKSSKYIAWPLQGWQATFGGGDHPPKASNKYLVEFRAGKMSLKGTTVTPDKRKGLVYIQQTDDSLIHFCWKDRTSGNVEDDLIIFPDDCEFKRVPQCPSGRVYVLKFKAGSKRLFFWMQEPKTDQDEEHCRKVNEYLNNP
T4 sequence (P22629 37-163 limits assumed): as the sequence (P22629 37-163 limits assumed) above
T3 sequence (Q16186 18-131 limits assumed): as the sequence (Q16186 18-131 limits assumed) above

## NC(=O)CNC(=O)COCCOCCNC(=O)CNC(=O)c1ccc2nc(-c3ccncc3)[nH]c2c1 [A63]
Rpn13 PRU; soluble compound, biotinylated Rpn13 PRU immobilized on SA chip
  KD (SPR): A similar result
Rpn13 PRU; supplementary CSV, solution dissociation constants, read-out: KD for Rpn13 PRU
  pKd: < 2.70
[1]
  fluorescence intensity in GST-Rpn13 PRU screen: above-background fluorescence
[2]
  effect of soluble Rpn2 peptide competitor on binding of GST-Rpn13 PRU: strongly suppressed binding

## NC(=O)CNC(=O)COCCOCCNC(=O)CNC(=O)c1cnc2[nH]ccc2c1 [A85]
Rpn13 PRU; soluble compound, biotinylated Rpn13 PRU immobilized on SA chip, read-out: KD (SPR)
  pKd: < 2.70
[1]
  fluorescence intensity in GST-Rpn13 PRU screen: above-background fluorescence
[2]
  effect of soluble Rpn2 peptide competitor on binding of GST-Rpn13 PRU: strongly suppressed binding

## NC(=O)[C@H]1CSCc2cccc(c2)C(=O)N(Cc2cccnc2)Cc2nc(cs2)C(=O)N(Cc2ccc(F)c(F)c2)Cc2nc(co2)C(=O)N1 [Compound 1]
SA-647
  dose-dependent binding of SA-647 (MFI by flow cytometer): dose-dependent binding
SA [3]
  tighter binding to SA than compound 2: more than 1000 times
SA [4]
  pKd: ~6.22

## CC(=O)N(Cc1ccccc1)Cc1nc(C(=O)N(C)CC(=O)NCCOCCOCC(=O)NCC(N)=O)cs1 [Compound 3]
Streptavidin (SA); soluble compound, immobilized SA
  binding to SA by SPR (in words): no detectable binding
[5]; 12 replicates, after background subtraction, Z' calculation
  Fluorescence intensity, Average: 177
[5]; 1 h, PBST, room temperature, after washing
  binding of SA-647 to bead-displayed compound (fluorescence): failed to retain more labeled SA than the acetylated “blank” beads; also recorded: No binding
[5]; replicates 1-12, after background subtraction, Z' calculation
  Fluorescence intensity, individual replicate: 76 and 119 and 260 and 226 and 50 and 156 and 122 and 81 and 136 and 180 and 145 and 568
[6]
  binding of mSA-647 to bead-displayed ligand: No binding
SA-647
  dose-dependent binding of SA-647 (MFI by flow cytometer): not

## CN(CC(=O)NCCOCCOCC(=O)NCC(N)=O)C(=O)c1csc(CN(Cc2cccnc2)C(=O)C2CCC(=O)C2)n1 (centres unmarked) [Compound 4]
Streptavidin (SA); SPR, immobilized SA
  improvement of KD over the parent compound 2: 7.8 fold
Streptavidin (SA); [8]
  pKd: 4.05
[7]
  SA-647 retained by bead-displayed grown compound relative to parent compound 2: retained the most SA-647

## CN(CC(=O)NCCOCCOCC(=O)NCC(N)=O)C(=O)c1csc(CN(Cc2cccnc2)C(=O)c2ccc(F)c(C#N)c2)n1 [Compound 5]
Streptavidin (SA); supplementary CSV, solution dissociation constants, read-out: KD for SA
  pKd: 3.80

## CN(CC(=O)NCCOCCOCC(=O)NCC(N)=O)C(=O)c1csc(CN(Cc2cccnc2)C(=O)c2ccc(F)c(F)c2)n1 [Compound 6]
Streptavidin (SA); [8]
  pKd: 3.48
[7]
  SA-647 retained by bead-displayed grown compound relative to parent compound 2: captured less SA-647 than bead-displayed 4 but more than bead-displayed 2

## CN(CC(=O)NCCOCCOCC(=O)NCC(N)=O)C(=O)c1csc(CN(Cc2cccnc2)C(=O)c2ccc3[nH]ccc3c2)n1 [Compound 7]
Streptavidin (SA); [8]
  pKd: 3.11
[7]
  SA-647 retained by bead-displayed grown compound relative to parent compound 2: retained less SA-647 than compound 2

## O=C(O)CCCC[C@@H]1SC[C@@H]2NC(=O)N[C@@H]21 [biotin, reference compound]
[5]; site functionalization 100% to 5%
  dependence of SA-647 retention on ligand density: insensitive to ligand density
[6]
  binding of mSA-647 to bead-displayed ligand: readily observable
